Test results: article PMC12892976, “Alkylation-based optimization of antifungal FPPS inhibitors yields a potent, broad-spectrum lipophilic zoledronate derivative” (mBio, 2025)
Values after ≈ are worked out from the molar mass of the structure shown.

Assays:
[1] = tested on: Aspergillus terreus; test: checkerboard drug interaction (FICI, MICc); assay type: cell-based;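 note: simplified diagonal checkerboard screen pairing antifungals with FPPS inhibitors, FICI derived by the Loewe additivity model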
Protocol: (§1) Drug interactions between antifungals and FPPS inhibitors were investigated using a simplified checkerboard diagonal screening method ([45]). […] FICIs were determined according to the Loewe additivity model ([17]).

[2] = tested on: Aspergillus udagawae; test: checkerboard drug interaction (FICI, MICc); assay type: cell-based;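 note: simplified diagonal checkerboard screen pairing antifungals with FPPS inhibitors, FICI calculated using the Loewe additivity model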
Protocol: as §1

[3] = tested on: Microsporum canis; test: checkerboard drug interaction (FICI, MICc); assay type: cell-based;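 note: simplified diagonal checkerboard screen pairing antifungals with FPPS inhibitors, FICI calculated under the Loewe additivity model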
Protocol: as §1

[4] = tested on: Nannizzia nana; test: checkerboard drug interaction (FICI, MICc); assay type: cell-based;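 note: simplified diagonal checkerboard screen pairing antifungals with FPPS inhibitors, FICI calculated under the Loewe additivity model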
Protocol: as §1

[5] = tested on: Trichophyton tonsurans; test: checkerboard drug interaction (FICI, MICc); assay type: cell-based;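 note: simplified diagonal checkerboard screen combining antifungals with FPPS inhibitors, with FICI calculated under the Loewe additivity model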
Protocol: as §1

[6] = tested on: Fusarium solani; test: MIC broth microdilution (CLSI); conditions: Fusarium solani 04-16-056-1862
Protocol: (§2) Antifungal susceptibility was determined by broth microdilution according to the CLSI guidelines described in M27-Ed4 ([16]).

[7] = tested on: Trichophyton tonsurans; test: MIC broth microdilution (CLSI); conditions: Trichophyton tonsurans R-168
Protocol: as §2

[8] = tested on: Trichophyton soudanense; test: MIC broth microdilution (CLSI); conditions: Trichophyton soudanense R-167
Protocol: as §2

[9] = tested on: Aspergillus frankstonensis; test: checkerboard drug interaction (FICI, MICc);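 note: simplified diagonal checkerboard screen pairing antifungals with FPPS inhibitors, FICI calculated using the Loewe additivity model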
Protocol: as §1

[10] = tested on: Epidermophyton floccosum; test: checkerboard drug interaction (FICI, MICc);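 note: simplified diagonal checkerboard screen pairing antifungals with FPPS inhibitors, FICI calculated under the Loewe additivity model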
Protocol: as §1

[11] = tested on: Paraphyton cookei; test: checkerboard drug interaction (FICI, MICc);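 note: simplified diagonal checkerboard screen pairing an antifungal with an FPPS inhibitor, FICI computed under the Loewe additivity model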
Protocol: as §1

[12] = tested on: Nannizzia gypsea; test: checkerboard drug interaction (FICI, MICc);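 note: simplified diagonal checkerboard screen pairing antifungals with FPPS inhibitors, FICI derived using the Loewe additivity model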
Protocol: as §1

[13] = tested on: Trichophyton interdigitale; test: checkerboard drug interaction (FICI, MICc);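 note: simplified diagonal checkerboard screen pairing antifungals with FPPS inhibitors, FICI values calculated under the Loewe additivity model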
Protocol: as §1

Compound: O=P(O)(O)C(O)(Cn1ccnc1)P(=O)(O)O [ZOL, zoledronate]
- bisphosphonate MICc ([1]; ZOL with AMB): 64
- bisphosphonate MICc ([1]; ZOL with CAS): 64
- bisphosphonate MICc ([1]; ZOL with FLC): 32
- bisphosphonate MICc ([1]; ZOL with ITR): 32
- bisphosphonate MICc ([1]; ZOL with KET): 16
- bisphosphonate MICc ([1]; ZOL with VOR): 2
- FICI ([2]; 5FC:ZOL): ≥4
- FICI ([2]; AMB:ZOL): 0.63
- FICI ([2]; CAS:ZOL): 2
- FICI ([2]; FLC:ZOL): 1.01
- FICI ([2]; ITR:ZOL): 1
- FICI ([2]; KET:ZOL): 0.75
- FICI ([2]; VOR:ZOL): 1
- bisphosphonate MICc ([2]; ZOL with 5FC): 512
- bisphosphonate MICc ([2]; ZOL with AMB): 128
- bisphosphonate MICc ([2]; ZOL with CAS): 256
- bisphosphonate MICc ([2]; ZOL with FLC): 2
- bisphosphonate MICc ([2]; ZOL with ITR): 128
- bisphosphonate MICc ([2]; ZOL with KET): 128
- bisphosphonate MICc ([2]; ZOL with VOR): 128
- FICI ([3]; 5FC:ZOL): ≥4
- FICI ([3]; AMB:ZOL): 0.75
- FICI ([3]; CAS:ZOL): 0.56
- FICI ([3]; FLC:ZOL): 0.38
- FICI ([3]; ITR:ZOL): 0.75
- FICI ([3]; KET:ZOL): 0.31
- FICI ([3]; VOR:ZOL): 0.63
- bisphosphonate MICc ([3]; ZOL with 5FC): 64
- bisphosphonate MICc ([3]; ZOL with AMB): 16
- bisphosphonate MICc ([3]; ZOL with CAS): 4
- bisphosphonate MICc ([3]; ZOL with FLC): 8
- bisphosphonate MICc ([3]; ZOL with ITR): 16
- bisphosphonate MICc ([3]; ZOL with KET): 4
- bisphosphonate MICc ([3]; ZOL with VOR): 8
- FICI ([4]; 5FC:ZOL): ≥4
- FICI ([4]; AMB:ZOL): 1
- FICI ([4]; CAS:ZOL): 0.75
- FICI ([4]; FLC:ZOL): 0.5
- FICI ([4]; ITR:ZOL): 0.65
- FICI ([4]; KET:ZOL): 0.51
- FICI ([4]; VOR:ZOL): 1.1
- bisphosphonate MICc ([4]; ZOL with 5FC): 256
- bisphosphonate MICc ([4]; ZOL with AMB): 64
- bisphosphonate MICc ([4]; ZOL with CAS): 64
- bisphosphonate MICc ([4]; ZOL with FLC): 32
- bisphosphonate MICc ([4]; ZOL with ITR): 16
- bisphosphonate MICc ([4]; ZOL with KET): 32
- bisphosphonate MICc ([4]; ZOL with VOR): 8
- FICI ([5]; 5FC:ZOL): 2
- FICI ([5]; AMB:ZOL): 3.92
- FICI ([5]; CAS:ZOL): 1
- FICI ([5]; FLC:ZOL): 0.31
- FICI ([5]; ITR:ZOL): 0.38
- FICI ([5]; KET:ZOL): 0.25
- FICI ([5]; VOR:ZOL): 0.61
- bisphosphonate MICc ([5]; ZOL with 5FC): 128
- bisphosphonate MICc ([5]; ZOL with AMB): 256
- bisphosphonate MICc ([5]; ZOL with CAS): 64
- bisphosphonate MICc ([5]; ZOL with FLC): 8
- bisphosphonate MICc ([5]; ZOL with ITR): 16
- bisphosphonate MICc ([5]; ZOL with KET): 16
- bisphosphonate MICc ([5]; ZOL with VOR): 16
- MIC / MEC [6]: 256 µg/mL (≈ 941 µM)
- MIC / MEC [7]: 128 µg/mL (≈ 470 µM)
- MIC / MEC [8]: 64 µg/mL (≈ 235 µM)
- FICI ([9]; 5FC:ZOL): ≥4
- FICI ([9]; AMB:ZOL): 2
- FICI ([9]; CAS:ZOL): ≥4
- FICI ([9]; FLC:ZOL): 0.56
- FICI ([9]; ITR:ZOL): 1.25
- FICI ([9]; KET:ZOL): 1
- FICI ([9]; VOR:ZOL): 1.13
- bisphosphonate MICc ([9]; ZOL with 5FC): 256
- bisphosphonate MICc ([9]; ZOL with AMB): 128
- bisphosphonate MICc ([9]; ZOL with CAS): 256
- bisphosphonate MICc ([9]; ZOL with FLC): 8
- bisphosphonate MICc ([9]; ZOL with ITR): 32
- bisphosphonate MICc ([9]; ZOL with KET): 64
- bisphosphonate MICc ([9]; ZOL with VOR): 16
- FICI ([10]; 5FC:ZOL): 1.5
- FICI ([10]; AMB:ZOL): 1
- FICI ([10]; CAS:ZOL): 2.17
- FICI ([10]; FLC:ZOL): 0.63
- FICI ([10]; ITR:ZOL): 0.63
- FICI ([10]; KET:ZOL): 0.5
- FICI ([10]; VOR:ZOL): 1.13
- bisphosphonate MICc ([10]; ZOL with 5FC): 64
- bisphosphonate MICc ([10]; ZOL with AMB): 32
- bisphosphonate MICc ([10]; ZOL with CAS): 16
- bisphosphonate MICc ([10]; ZOL with FLC): 8
- bisphosphonate MICc ([10]; ZOL with ITR): 8
- bisphosphonate MICc ([10]; ZOL with KET): 16
- bisphosphonate MICc ([10]; ZOL with VOR): 8
- FICI ([11]; 5FC:ZOL): ≥4
- FICI ([11]; AMB:ZOL): 0.5
- FICI ([11]; CAS:ZOL): 0.63
- FICI ([11]; FLC:ZOL): 0.63
- FICI ([11]; ITR:ZOL): 0.56
- FICI ([11]; KET:ZOL): 0.56
- FICI ([11]; VOR:ZOL): 0.38
- bisphosphonate MICc ([11]; ZOL with 5FC): 128
- bisphosphonate MICc ([11]; ZOL with AMB): 32
- bisphosphonate MICc ([11]; ZOL with CAS): 16
- bisphosphonate MICc ([11]; ZOL with FLC): 16
- bisphosphonate MICc ([11]; ZOL with ITR): 8
- bisphosphonate MICc ([11]; ZOL with KET): 8
- bisphosphonate MICc ([11]; ZOL with VOR): 16
- FICI ([12]; 5FC:ZOL): 3
- FICI ([12]; AMB:ZOL): 0.75
- FICI ([12]; CAS:ZOL): 0.75
- FICI ([12]; FLC:ZOL): 0.31
- FICI ([12]; ITR:ZOL): 0.38
- FICI ([12]; KET:ZOL): 0.19
- FICI ([12]; VOR:ZOL): 0.28
- bisphosphonate MICc ([12]; ZOL with 5FC): 256
- bisphosphonate MICc ([12]; ZOL with AMB): 64
- bisphosphonate MICc ([12]; ZOL with CAS): 64
- bisphosphonate MICc ([12]; ZOL with FLC): 16
- bisphosphonate MICc ([12]; ZOL with ITR): 32
- bisphosphonate MICc ([12]; ZOL with KET): 32
- bisphosphonate MICc ([12]; ZOL with VOR): 8
- FICI ([13]; 5FC:ZOL): 2
- FICI ([13]; AMB:ZOL): 3
- FICI ([13]; CAS:ZOL): 1.25
- FICI ([13]; FLC:ZOL): 0.5
- FICI ([13]; ITR:ZOL): 0.27
- FICI ([13]; KET:ZOL): 0.5
- FICI ([13]; VOR:ZOL): 0.38
- bisphosphonate MICc ([13]; ZOL with 5FC): 256
- bisphosphonate MICc ([13]; ZOL with AMB): 256
- bisphosphonate MICc ([13]; ZOL with CAS): 64
- bisphosphonate MICc ([13]; ZOL with FLC): 64
- bisphosphonate MICc ([13]; ZOL with ITR): 4
- bisphosphonate MICc ([13]; ZOL with KET): 64
- bisphosphonate MICc ([13]; ZOL with VOR): 32
